Measurements from patent US20240382629A1, “HETEROBIVALENT AND HOMOBIVALENT AGENTS TARGETING FIBROBLAST ACTIVATION PROTEIN ALPHA AND/OR PROSTATE-SPECIFIC MEMBRANE ANTIGEN” (The Johns Hopkins University, priority 2021, published 2024).
Where “and” joins values, the source holds several entries; their conditions need not be identical. Equal entries are not always repeated.

Assay: Biodistribution of [^18F]JHU122047 with UAMC-01110 blocker
Assay type: in vivo, mouse
[1] = + Blocker UAMC-01110, 1 hr post injection, mean
[2] = + Vehicle, 1 hr post injection, mean
[3] = individual mouse, NOD/SCID, 120 min
[4] = individual mouse, NUDE, 120 min
[5] = mean (one sample; gamma counter error), NOD/SCID, 120 min

## N#C[C@@H]1CCCN1C(=O)CNC(=O)c1ccnc2ccc(OCCF)cc12 [[^18F]JHU122047]
[1]
  % ID/g Mean Bladder: 2.10 % ID/g
  % ID/g Mean Brain: 0.19 % ID/g
  % ID/g Mean Fat: 0.08 % ID/g
  % ID/g Mean Kidney: 0.60 % ID/g
  % ID/g Mean Large intestine: 2.19 % ID/g
  % ID/g Mean Muscle: 0.27 % ID/g
  % ID/g Mean Pancreas: 0.23 % ID/g
  % ID/g Mean Salivary gland: 0.28 % ID/g
  % ID/g Mean Small intestine: 8.53 % ID/g
  % ID/g Mean Spleen: 0.28 % ID/g
  % ID/g Mean Stomach: 0.50 % ID/g
  % ID/g Mean Tumor: 0.45 % ID/g
[2]
  % ID/g Mean Bladder: 1.13 % ID/g
  % ID/g Mean Brain: 0.14 % ID/g
  % ID/g Mean Fat: 0.11 % ID/g
  % ID/g Mean Kidney: 1.25 % ID/g
  % ID/g Mean Large intestine: 0.99 % ID/g
  % ID/g Mean Muscle: 0.34 % ID/g
  % ID/g Mean Pancreas: 0.33 % ID/g
  % ID/g Mean Salivary gland: 0.58 % ID/g
  % ID/g Mean Small intestine: 2.48 % ID/g
  % ID/g Mean Spleen: 0.26 % ID/g
  % ID/g Mean Stomach: 0.32 % ID/g
  % ID/g Mean Tumor: 1.96 % ID/g
Blood, + Blocker UAMC-01110, 1 hr post injection, mean
  % ID/g Mean Blood: 0.12 % ID/g
Blood, + Vehicle, 1 hr post injection, mean
  % ID/g Mean Blood: 0.36 % ID/g
Blood, + Vehicle, 1 hr post injection, single mouse
  % ID/g Blood: 0.38 % ID/g and 0.34 % ID/g
Heart, + Blocker UAMC-01110, 1 hr post injection, mean
  % ID/g Mean Heart: 0.38 % ID/g
Heart, + Vehicle, 1 hr post injection, mean
  % ID/g Mean Heart: 0.35 % ID/g
Heart, + Vehicle, 1 hr post injection, single mouse
  % ID/g Heart: 0.35 % ID/g
Liver, + Blocker UAMC-01110, 1 hr post injection, mean
  % ID/g Mean Liver: 0.66 % ID/g
Liver, + Vehicle, 1 hr post injection, mean
  % ID/g Mean Liver: 0.68 % ID/g
Liver, + Vehicle, 1 hr post injection, single mouse
  % ID/g Liver: 0.67 % ID/g
Lung, + Blocker UAMC-01110, 1 hr post injection, mean
  % ID/g Mean Lung: 0.33 % ID/g
Lung, + Vehicle, 1 hr post injection, mean
  % ID/g Mean Lung: 0.36 % ID/g
Lung, + Vehicle, 1 hr post injection, single mouse
  % ID/g Lung: 0.34 % ID/g and 0.37 % ID/g
Individual mouse
  Bladder % ID/g: 12.70 % ID/g and 11.31 % ID/g
  Brain % ID/g: 0.02 % ID/g and 0.08 % ID/g
  Fat % ID/g: 0.07 % ID/g and 0.10 % ID/g
  Femur % ID/g: 0.87 % ID/g and 0.43 % ID/g
  Kidney % ID/g: 1.61 % ID/g and 1.54 % ID/g
  Large intestine % ID/g: 0.18 % ID/g and 0.19 % ID/g
  Liver % ID/g: 1.74 % ID/g and 1.65 % ID/g
  Muscle % ID/g: 0.07 % ID/g and 0.12 % ID/g
  Pancreas % ID/g: 0.07 % ID/g and 0.19 % ID/g
  Salivary gland % ID/g: 0.12 % ID/g and 0.14 % ID/g
  Small intestine % ID/g: 0.48 % ID/g and 0.45 % ID/g
  Spleen % ID/g: 0.10 % ID/g and 0.15 % ID/g
  Stomach % ID/g: 0.18 % ID/g and 0.17 % ID/g
  Tumor % ID/g: 0.21 % ID/g and 0.23 % ID/g
[3]
  Bladder % ID/g: 3.86 % ID/g
  Blood % ID/g: 0.40 % ID/g and 0.47 % ID/g
  Brain % ID/g: 0.04 % ID/g
  Fat % ID/g: 0.09 % ID/g and 0.18 % ID/g
  Femur % ID/g: 1.59 % ID/g
  Heart % ID/g: 0.20 % ID/g and 0.29 % ID/g
  Kidney % ID/g: 1.51 % ID/g and 1.58 % ID/g
  Large intestine % ID/g: 0.30 % ID/g and 0.45 % ID/g
  Liver % ID/g: 1.11 % ID/g and 0.88 % ID/g
  Lung % ID/g: 0.36 % ID/g and 0.57 % ID/g
  Muscle % ID/g: 0.25 % ID/g and 0.35 % ID/g
  Pancreas % ID/g: 0.38 % ID/g and 0.77 % ID/g
  Salivary gland % ID/g: 0.74 % ID/g and 0.62 % ID/g
  Small intestine % ID/g: 0.38 % ID/g and 0.95 % ID/g
  Spleen % ID/g: 0.26 % ID/g and 0.36 % ID/g
  Stomach % ID/g: 0.22 % ID/g and 0.35 % ID/g
  Tumor % ID/g: 3.13 % ID/g
[4]
  Bladder % ID/g: 1.31 % ID/g and 1.80 % ID/g
  Blood % ID/g: 0.66 % ID/g and 0.56 % ID/g
  Brain % ID/g: 0.05 % ID/g and 0.06 % ID/g
  Fat % ID/g: 0.13 % ID/g and 0.10 % ID/g
  Femur % ID/g: 2.27 % ID/g and 2.55 % ID/g
  Heart % ID/g: 0.34 % ID/g and 0.28 % ID/g
  Kidney % ID/g: 1.50 % ID/g and 1.43 % ID/g
  Large intestine % ID/g: 0.34 % ID/g and 0.41 % ID/g
  Liver % ID/g: 0.45 % ID/g and 0.42 % ID/g
  Lung % ID/g: 0.49 % ID/g and 0.56 % ID/g
  Muscle % ID/g: 0.49 % ID/g and 0.45 % ID/g
  Pancreas % ID/g: 0.53 % ID/g and 0.34 % ID/g
  Salivary gland % ID/g: 1.02 % ID/g and 0.78 % ID/g
  Small intestine % ID/g: 0.35 % ID/g and 0.31 % ID/g
  Spleen % ID/g: 0.22 % ID/g
  Stomach % ID/g: 0.27 % ID/g and 0.25 % ID/g
  Tumor % ID/g: 2.65 % ID/g and 3.51 % ID/g
mean
  Bladder % ID/g: 12.01 % ID/g
  Brain % ID/g: 0.02 % ID/g
  Fat % ID/g: 0.08 % ID/g
  Femur % ID/g: 0.40 % ID/g
  Kidney % ID/g: 1.57 % ID/g
  Large intestine % ID/g: 0.18 % ID/g
  Liver % ID/g: 1.70 % ID/g
  Lung % ID/g: 0.38 % ID/g
  Muscle % ID/g: 0.09 % ID/g
  Pancreas % ID/g: 0.10 % ID/g
  Salivary gland % ID/g: 0.13 % ID/g
  Small intestine % ID/g: 0.47 % ID/g
  Spleen % ID/g: 0.13 % ID/g
  Stomach % ID/g: 0.17 % ID/g
  Tumor % ID/g: 0.22 % ID/g
[5]
  Bladder % ID/g: 3.86 % ID/g
  Femur % ID/g: 1.59 % ID/g
  Tumor % ID/g: 3.13 % ID/g
mean, NOD/SCID, 120 min
  Blood % ID/g: 0.43 % ID/g
  Brain % ID/g: 0.04 % ID/g
  Fat % ID/g: 0.11 % ID/g
  Heart % ID/g: 0.24 % ID/g
  Kidney % ID/g: 1.55 % ID/g
  Large intestine % ID/g: 0.37 % ID/g
  Liver % ID/g: 1.00 % ID/g
  Lung % ID/g: 0.47 % ID/g
  Muscle % ID/g: 0.30 % ID/g
  Pancreas % ID/g: 0.57 % ID/g
  Salivary gland % ID/g: 0.58 % ID/g
  Small intestine % ID/g: 0.67 % ID/g
  Spleen % ID/g: 0.31 % ID/g
  Stomach % ID/g: 0.28 % ID/g
mean, NUDE, 120 min
  Bladder % ID/g: 1.55 % ID/g
  Blood % ID/g: 0.61 % ID/g
  Brain % ID/g: 0.06 % ID/g
  Fat % ID/g: 0.12 % ID/g
  Femur % ID/g: 2.41 % ID/g
  Heart % ID/g: 0.31 % ID/g
  Kidney % ID/g: 1.46 % ID/g
  Large intestine % ID/g: 0.37 % ID/g
  Liver % ID/g: 0.44 % ID/g
  Lung % ID/g: 0.53 % ID/g
  Muscle % ID/g: 0.47 % ID/g
  Pancreas % ID/g: 0.43 % ID/g
  Salivary gland % ID/g: 0.90 % ID/g
  Small intestine % ID/g: 0.33 % ID/g
  Spleen % ID/g: 0.22 % ID/g
  Stomach % ID/g: 0.26 % ID/g
  Tumor % ID/g: 3.08 % ID/g
